According to ChEMBL document CHEMBL4145602, “Cyclic Peptidic Mimetics of Apollo Peptides Targeting Telomeric Repeat Binding Factor 2 (TRF2) and Apollo Interaction” (ACS Med Chem Lett, 2018):
Square brackets hold non-standard residues; d marks the D form. Peptide text beside a SMILES is read from it. Phe(4-NH2) = Nc1ccc(C[C@H](N)C(=O)O)cc1; Gly(cPent) = N[C@H](C(=O)O)C1CCCC1; tBuAla = CC(C)(C)C[C@H](N)C(=O)O; Cha = N[C@@H](CC1CCCCC1)C(=O)O; Chg = N[C@H](C(=O)O)C1CCCCC1; Nva = CCC[C@H](N)C(=O)O

target: T1, Telomeric repeat-binding factor 2 (Homo sapiens, UniProt Q15554); test: Displacement of 5-((2R,6S,9S,12S,15S,18S,21S,24S)-3-((S)-2-((S)-1-amino-3-methyl-1-oxobutan-2-ylcarbamoyl)pyrrolidine-1-carbonyl)-15-(4-aminobutyl)-2-hydroxy-12-(4-hydroxybenzyl)-6,9,18,24-tetraisobutyl-21-methyl-5,8,11,14,17,20,23,26,29-nonaoxo-4,7,10,13,16,19,22,25,28-nonaazatetratriacontan-34-ylcarbamoyl)-2-(6-hydroxy-3-oxo-3H-xanthen-9-yl)benzoic acid from TRF2 TRFH domain (unknown origin) after 30 mins by fluorescence polarization assay
T1 sequence (Q15554 whole entry): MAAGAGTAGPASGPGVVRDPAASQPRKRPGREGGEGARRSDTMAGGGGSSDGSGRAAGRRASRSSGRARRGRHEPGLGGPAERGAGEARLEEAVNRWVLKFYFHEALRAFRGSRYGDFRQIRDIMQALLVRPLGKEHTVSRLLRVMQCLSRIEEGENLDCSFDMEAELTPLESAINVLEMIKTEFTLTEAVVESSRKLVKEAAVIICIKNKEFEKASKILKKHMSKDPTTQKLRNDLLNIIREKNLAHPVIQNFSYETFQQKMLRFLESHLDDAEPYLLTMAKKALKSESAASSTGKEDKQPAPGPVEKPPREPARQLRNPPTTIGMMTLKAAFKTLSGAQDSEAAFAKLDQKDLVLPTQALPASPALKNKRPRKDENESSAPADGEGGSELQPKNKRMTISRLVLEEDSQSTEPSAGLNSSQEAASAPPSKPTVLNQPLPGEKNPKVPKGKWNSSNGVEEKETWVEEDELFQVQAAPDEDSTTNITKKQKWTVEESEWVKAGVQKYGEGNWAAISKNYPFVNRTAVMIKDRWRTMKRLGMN

Point of comparison: `CC(=O)N[C@@H](CC(C)C)C(=O)N[C@@H](C)C(=O)N[C@@H](CC(C)C)C(=O)N[C@@H](CCCCN)C(=O)N[C@@H](Cc1ccc(O)cc1)C(=O)N[C@@H](CC(C)C)C(=O)N[C@@H](CC(C)(C)C)C(=O)N[C@H](C(=O)N1CCC[C@H]1C(=O)N[C@H](C(N)=O)C(C)C)[C@@H](C)O` (Ac-LALKYL[tBuAla]TPV-NH2), Ki 6.1 µM. Against it:
- CC(C)C[C@@H]1NC(=O)[C@@H](NC(=O)[C@@H](N)Cc2ccccc2)CCCCCCCC[C@@H](C(=O)N(C)C)NC(=O)[C@@H]2CCCN2C(=O)[C@H](C)NC1=O — 7.1-fold higher, 43.2 µM
- CC(=O)N[C@@H](CC(C)C)C(=O)N[C@@H](C)C(=O)N[C@@H](CC(C)C)C(=O)N[C@@H](CCCCN)C(=O)N[C@@H](Cc1ccc(O)cc1)C(=O)N[C@H]1CCCCCCC[C@@H](C(=O)N(C)C)NC(=O)[C@@H]2CCCN2C(=O)[C@H](C)NC(=O)[C@H](CC(C)C)NC1=O — 68-fold lower, 0.09 µM
- CC(C)C[C@@H]1NC(=O)[C@@H](NC(=O)[C@H](Cc2ccccc2)NC(=O)C[C@@H](N)Cc2ccccc2)CCCCCCC[C@@H](C(=O)N(C)C)NC(=O)[C@@H]2CCCN2C(=O)[C@H](C)NC1=O — 2.3-fold higher, 14.3 µM
- CC(C)C[C@@H]1NC(=O)[C@@H](NC(=O)[C@@H](N)Cc2ccc(O)cc2)CCCCCCC[C@@H](C(=O)N(C)C)NC(=O)[C@@H]2CCCN2C(=O)[C@H](C)NC1=O — 9.5-fold higher, 58.2 µM
- CC(C)C[C@@H]1NC(=O)[C@@H](N)CCCCCCC[C@@H](C(=O)N(C)C)NC(=O)[C@@H]2CCCN2C(=O)[C@H](C)NC1=O — 19-fold higher, 115 µM
- CC(C)C[C@@H]1NC(=O)[C@@H](NC(=O)[C@@H](N)Cc2ccccc2)CCCCCC[C@@H](C(=O)N(C)C)NC(=O)[C@@H]2CCCN2C(=O)[C@H](C)NC1=O — 21-fold higher, 130 µM
- CC(C)C[C@@H]1NC(=O)[C@@H](NC(=O)[C@H](Cc2ccc(O)cc2)NC(=O)[C@@H](N)CCCCN)CCCCCCC[C@@H](C(=O)N(C)C)NC(=O)[C@@H]2CCCN2C(=O)[C@H](C)NC1=O — 3-fold higher, 18.4 µM
- CC(C)C[C@@H]1NC(=O)[C@@H](NC(=O)[C@@H](N)Cc2ccccc2)CCCCCCC[C@@H](C(=O)N(C)C)NC(=O)[C@@H]2CCCN2C(=O)[C@H](C)NC1=O — 6.8-fold higher, 41.4 µM
- CC(C)C[C@@H]1NC(=O)[C@@H](NC(=O)[C@H](Cc2ccccc2)NC(=O)CCc2ccccc2)CCCCCCC[C@@H](C(=O)N(C)C)NC(=O)[C@@H]2CCCN2C(=O)[C@H](C)NC1=O — 1.8-fold higher, 11.2 µM
- CC(=O)N[C@@H](CC(C)C)C(=O)N[C@@H](C)C(=O)N[C@@H](CC(C)C)C(=O)N[C@@H](C)C(=O)N[C@@H](Cc1ccc(O)cc1)C(=O)N[C@@H](CC(C)C)C(=O)N[C@@H](CC(C)C)C(=O)N[C@H](C(=O)N1CCC[C@H]1C(=O)N[C@H](C(N)=O)C(C)C)[C@@H](C)O (Ac-LALAYLLTPV-NH2) — 1.9-fold lower, 3.2 µM
- CC(=O)N[C@@H](CC(C)C)C(=O)N[C@@H](C)C(=O)N[C@@H](CC(C)C)C(=O)N[C@@H](CCCCN)C(=O)N[C@@H](Cc1ccccc1)C(=O)N[C@@H](CC(C)C)C(=O)N[C@@H](CC(C)C)C(=O)N[C@H](C(=O)N1CCC[C@H]1C(=O)N[C@H](C(N)=O)C(C)C)[C@@H](C)O (Ac-LALKFLLTPV-NH2) — 1.8-fold lower, 3.4 µM
- CC(=O)N[C@@H](CC(C)C)C(=O)N[C@@H](C)C(=O)N[C@@H](CC(C)C)C(=O)N[C@@H](CCCCN)C(=O)N[C@@H](Cc1ccc(O)cc1)C(=O)N[C@@H](CC(C)C)C(=O)O (Ac-LALKYL-OH) — 76-fold higher, 461 µM
- CC(=O)N[C@@H](CC(C)C)C(=O)N[C@@H](C)C(=O)N[C@@H](CC(C)C)C(=O)N[C@@H](CCCCN)C(=O)N[C@@H](Cc1ccc(O)cc1)C(=O)N[C@@H](CC(C)C)C(=O)N[C@@H](C)C(=O)N[C@H](C(=O)N1CCC[C@H]1C(=O)N[C@H](C(N)=O)C(C)C)[C@@H](C)O (Ac-LALKYLATPV-NH2) — higher, > 100 µM
- CC(=O)N[C@@H](CC(C)C)C(=O)N[C@@H](C)C(=O)N[C@@H](CC(C)C)C(=O)N[C@@H](CCCCN)C(=O)N[C@@H](Cc1ccc(O)cc1)C(=O)N[C@@H](CC(C)C)C(=O)N[C@@H](Cc1ccccc1)C(=O)N[C@H](C(=O)N1CCC[C@H]1C(=O)N[C@H](C(N)=O)C(C)C)[C@@H](C)O (Ac-LALKYLFTPV-NH2) — within 1.5-fold, 8.5 µM
- CC[C@H](C)[C@H](NC(=O)[C@H](CC(C)C)NC(=O)[C@H](Cc1ccc(O)cc1)NC(=O)[C@H](CCCCN)NC(=O)[C@H](CC(C)C)NC(=O)[C@H](C)NC(=O)[C@H](CC(C)C)NC(C)=O)C(=O)N[C@H](C(=O)N1CCC[C@H]1C(=O)N[C@H](C(N)=O)C(C)C)[C@@H](C)O (Ac-LALKYLITPV-NH2) — 1.9-fold higher, 11.3 µM
- CC(=O)N[C@@H](CC(C)C)C(=O)N[C@@H](C)C(=O)N[C@@H](CC(C)C)C(=O)N[C@@H](CCCCN)C(=O)N[C@@H](Cc1ccc(O)cc1)C(=O)N[C@@H](CC(C)C)C(=O)N[C@@H](CC(C)C)C(=O)O (Ac-LALKYLL-OH) — 16-fold higher, 98 µM
- CC(=O)N[C@@H](CC(C)C)C(=O)N[C@@H](C)C(=O)N[C@@H](CC(C)C)C(=O)N[C@@H](CCCCN)C(=O)N[C@@H](Cc1ccc(O)cc1)C(=O)N[C@@H](CC(C)C)C(=O)N[C@@H](CC(C)C)C(=O)N[C@@H](C)C(=O)N1CCC[C@H]1C(=O)N[C@H](C(N)=O)C(C)C (Ac-LALKYLLAPV-NH2) — 25-fold lower, 0.24 µM
- CC(=O)N[C@@H](CC(C)C)C(=O)N[C@@H](C)C(=O)N[C@@H](CC(C)C)C(=O)N[C@@H](CCCCN)C(=O)N[C@@H](Cc1ccc(O)cc1)C(=O)N[C@@H](CC(C)C)C(=O)N[C@@H](CC(C)C)C(=O)N[C@H](C(=O)O)[C@@H](C)O (Ac-LALKYLLT-OH) — 4.3-fold higher, 26.3 µM
- CC(=O)N[C@@H](CC(C)C)C(=O)N[C@@H](C)C(=O)N[C@@H](CC(C)C)C(=O)N[C@@H](CCCCN)C(=O)N[C@@H](Cc1ccc(O)cc1)C(=O)N[C@@H](CC(C)C)C(=O)N[C@@H](CC(C)C)C(=O)N[C@H](C(=O)N1CCC[C@H]1C(=O)O)[C@@H](C)O (Ac-LALKYLLTP-OH) — 3.2-fold lower, 1.89 µM
- CC(=O)N[C@@H](CC(C)C)C(=O)N[C@@H](C)C(=O)N[C@@H](CC(C)C)C(=O)N[C@@H](CCCCN)C(=O)N[C@@H](Cc1ccc(O)cc1)C(=O)N[C@@H](CC(C)C)C(=O)N[C@@H](CC(C)C)C(=O)N[C@H](C(=O)N1CCC[C@H]1C(=O)N[C@H](C(=O)O)C(C)C)[C@@H](C)O (Ac-LALKYLLTPV-OH) — 18-fold lower, 0.34 µM
- CC(=O)N[C@@H](CC(C)C)C(=O)N[C@@H](C)C(=O)N[C@@H](CC(C)C)C(=O)N[C@@H](CCCCN)C(=O)N[C@@H](Cc1ccc(O)cc1)C(=O)N[C@@H](CC(C)C)C(=O)N[C@H](C(=O)N[C@H](C(=O)N1CCC[C@H]1C(=O)N[C@H](C(N)=O)C(C)C)[C@@H](C)O)C(C)C (Ac-LALKYLVTPV-NH2) — 10-fold higher, 61.2 µM
- CC(=O)N[C@@H](CC(C)C)C(=O)N[C@@H](C)C(=O)N[C@@H](CC(C)C)C(=O)N[C@@H](CCCCN)C(=O)N[C@@H](Cc1ccc(O)cc1)C(=O)N[C@@H](CC(C)C)C(=O)N[C@@H](CC1CCCCC1)C(=O)N[C@H](C(=O)N1CCC[C@H]1C(=O)N[C@H](C(N)=O)C(C)C)[C@@H](C)O (Ac-LALKYL[Cha]TPV-NH2) — 4.4-fold lower, 1.4 µM
- CC(=O)N[C@@H](CC(C)C)C(=O)N[C@@H](C)C(=O)N[C@@H](CC(C)C)C(=O)N[C@@H](CCCCN)C(=O)N[C@@H](Cc1ccc(O)cc1)C(=O)N[C@@H](CC(C)C)C(=O)N[C@H](C(=O)N[C@H](C(=O)N1CCC[C@H]1C(=O)N[C@H](C(N)=O)C(C)C)[C@@H](C)O)C1CCCCC1 (Ac-LALKYL[Chg]TPV-NH2) — 29-fold lower, 0.21 µM
- CC(=O)N[C@@H](CC(C)C)C(=O)N[C@@H](C)C(=O)N[C@@H](CC(C)C)C(=O)N[C@@H](CCCCN)C(=O)N[C@@H](Cc1ccc(O)cc1)C(=O)N[C@@H](CC(C)C)C(=O)N[C@H](C(=O)N[C@H](C(=O)N1CCC[C@H]1C(=O)N[C@H](C(N)=O)C(C)C)[C@@H](C)O)C1CCCC1 (Ac-LALKYL[Gly(cPent)]TPV-NH2) — 12-fold lower, 0.51 µM
- CCC[C@H](NC(=O)[C@H](CC(C)C)NC(=O)[C@H](Cc1ccc(O)cc1)NC(=O)[C@H](CCCCN)NC(=O)[C@H](CC(C)C)NC(=O)[C@H](C)NC(=O)[C@H](CC(C)C)NC(C)=O)C(=O)N[C@H](C(=O)N1CCC[C@H]1C(=O)N[C@H](C(N)=O)C(C)C)[C@@H](C)O (Ac-LALKYL[Nva]TPV-NH2) — within 1.5-fold, 4.7 µM
- CC(=O)N[C@@H](CC(C)C)C(=O)N[C@@H](C)C(=O)N[C@@H](CC(C)C)C(=O)N[C@@H](CCCCN)C(=O)N[C@@H](Cc1ccc(N)cc1)C(=O)N[C@@H](CC(C)C)C(=O)N[C@@H](CC(C)C)C(=O)N[C@H](C(=O)N1CCC[C@H]1C(=O)N[C@H](C(N)=O)C(C)C)[C@@H](C)O (Ac-LALK[Phe(4-NH2)]LLTPV-NH2) — 8.5-fold lower, 0.72 µM
- CC(C)C[C@H](NC(=O)[C@H](C)N)C(=O)N[C@@H](CCCCN)C(=O)N[C@@H](Cc1ccc(O)cc1)C(=O)N[C@@H](CC(C)C)C(=O)N[C@@H](CC(C)C)C(=O)N[C@H](C(=O)N1CCC[C@H]1C(=O)N[C@H](C(=O)O)C(C)C)[C@@H](C)O (H-ALKYLLTPV-OH) — 3.7-fold higher, 22.8 µM
- CC(C)C[C@H](NC(=O)CN)C(=O)N[C@@H](C)C(=O)N[C@@H](CC(C)C)C(=O)N[C@@H](CCCCN)C(=O)N[C@@H](Cc1ccc(O)cc1)C(=O)N[C@@H](CC(C)C)C(=O)N[C@@H](CC(C)C)C(=O)N[C@H](C(=O)N1CCC[C@H]1C(=O)N[C@H](C(=O)O)C(C)C)[C@@H](C)O (H-GLALKYLLTPV-OH) — 16-fold lower, 0.38 µM
- CC(C)C[C@H](NC(=O)[C@H](Cc1ccc(O)cc1)NC(=O)[C@@H](N)CCCCN)C(=O)N[C@@H](CC(C)C)C(=O)N[C@H](C(=O)N1CCC[C@H]1C(=O)N[C@H](C(=O)O)C(C)C)[C@@H](C)O (H-KYLLTPV-OH) — 20-fold higher, 123 µM
